According to US20250129054A1 (Terran Biosciences Inc., priority 2022, published 2025):

Tests used:
[1] = Terminal plasma and brain concentration at the end of the zero maze study; assay type: in vivo, Sprague-Dawley rats; settings: 5, 15 and 30 mg/kg ip, male SD rats
Description: Terminal sampling. At the end of the study, terminal blood was collected from 2 of the vehicle treated rats (>5 mL) and from all methylone HCl treated rats (500 uL) by CP under CO2. Blood samples were placed into Eppendorf tubes on ice containing 22 μL/mL blood (vehicle treated) or 11 μL EDTA (93 mg/mL) (Methylone HCl treated rats) and gently mixed. After no longer than 30 min, blood samples were centrifuged at 10,000 rpm×3 min and plasma samples (>2 mL (vehicle) or 2×100 μL (Methylone HCl treated) placed into Eppendorf tubes (Vehicle) or 96 well plates on dry ice. Immediately after blood sampling, brains were excised, rinsed in saline, blotted, weighed and snap-frozen in liquid N2. All samples were stored at −20
Terminal sampling. At the end of the study, terminal blood was collected from 2 of the vehicle treated rats (>5 mL) and from all S-methylone HCl treated rats (500 uL) by CP under CO2. Blood samples were placed into Eppendorf tubes on ice containing 22 μL/mL blood (vehicle treated) or 11 μL EDTA (93 mg/mL) (S-methylone HCl treated rats) and gently mixed. […]

[2] = tested on: post-traumatic stress disorder (PTSD); assay: Double-blind, randomized, placebo-controlled clinical trial of methylone-assisted psychotherapy in PTSD; assay type: in vivo, human; settings: at Study Conclusion
Description: A multicenter, randomized, double-blind, placebo-controlled trial is conducted to assess the efficacy and safety of methylone-assisted psychotherapy versus psychotherapy with placebo control in participants diagnosed with at least moderate post-traumatic stress disorder (PTSD).
This multicenter, randomized, double-blind, placebo-controlled trial is conducted at various sites in the United States with IRB approval from each study site. A flexible dose of methylone hydrochloride salt or placebo, followed by a supplemental half-dose unless contraindicated by patient's previous response or medical history, is also administered during the Treatment Period with psychotherapy in at least 3 blinded monthly Experimental Sessions. The Supplemental Dose extends the duration of drug effects on the participants during an Experimental Session. Methylone test groups are further subdivided into specific groups receiving only racemic methylone hydrochloride salt, S-methylone hydrochloride salt, or R-methylone hydrochloride salt. An optional Risk Evaluation and Mitigation Strategy (REMS) Protocol may be implemented for the racemic methylone, S-methylone, and placebo-groups. The Treatment Period lasts for approximately 12 weeks. During the Treatment Period, each Experimental Session is followed by three Intervening Sessions of non-drug psychotherapy. Each Experimental Session involves an overnight stay. The Primary Outcome measure, the change in Clinician Administered PTSD Scale for DSM-5 (CAPS-5), is determined by a blinded Independent Rater (IR) pool multiple times throughout the study. The study consists of separate periods for each participant. Initially, prospective participants undergo a Screening Period involving an initial eligibility assessment, a medical history intake, informed consent, and enrollment of eligible participants. Next, a Preparation Period is undertaken for enrolled participants involving medication tapering and clinical baseline assessments to confirm each participant meets enrollment criteria. As part of the Preparation Period, a detailed assessment of co-morbidities to PTSD is recorded. Participants may remain on prescribed courses of selective serotonin reuptake inhibitor (SSRI) or serotonin and norepinephrine reuptake inhibitor (SNRI) treatment. Dosages and/or frequency of administration of a prescribed SSRI or SNRI may be adjusted to fit within study parameters. Participants may be required to taper a prescribed course of medication in order to maintain eligibility within the study. The Treatment Period consists of three monthly Experimental Sessions and associated Intervening Sessions of integrative behavioral psychotherapy. The Treatment Period lasts approximately 12 weeks. Following the Treatment Period is a Follow-up Period and Study Conclusion. During the Follow-up Period and Study Conclusion, participants complete 4 weeks with no study visits, followed by a Study Conclusion visit.
This study compares the effects of three blinded Experimental Sessions of psychotherapy in combination with flexible doses of methylone or placebo administered as described below. Non-drug preparatory and intervening psychotherapy sessions are also included. Patient's weight is determined for dosage calculation. Initial dose is 100 mg unless this will result in a dosage of less than 1.5 mg/kg of patient weight. Initial dose thereby adjusted upward in 25 mg increments to deliver the lowest dose possible of at least 1.5 mg/kg of patient weight. Initial dose for Experimental Session 2 and 3 is cumulative dose calculated by adding the initial dose plus REMS protocol dose used the previous Experimental Session for each patient.
Randomization occurs prior to the initiation of Experimental Session 1. Each participant is provided the next randomized number in a sequence by a blinded study monitor. […]

[3] = compared to placebo-treated controls

CNC(C)C(=O)c1ccc2c(c1)OCO2 (racemic) [racemic methylone]
concentration in plasma and brain at the end of the zero maze study [1]: increased in both brain and plasma at the higher doses
daytime sleepiness as measured by ESS [2]: significant improvement in lessening daytime sleepiness
clinician-rated functional impairment score as measured by SDS [2, 3]: significant improvement
depression as measured by HAM-D [2, 3]: significant improvement
change in CAPS-5 assessment ([2]; with psychotherapy, compared to the placebo group, PTSD participants): significant mean reduction
